Source: patent US7276532B2, “Remedies for vesical hyperactivity” (Kyowa Hakko Kogyo Co., Ltd., priority 2001, dated 2007)

Columns and labels:
spinal cord-injured rats = test: Inhibitory activity on detrusor hyperreflexia (cystometry test); type: in vivo, rat; settings: average ± standard error
Procedure: The experiment was carried out according to the method of Cheng, et al. [Brain Res., Vol. 678, pp. 40-48 (1995)].
(§1) Female SD rats of 8 to 10 weeks of age (supplied by Japan SLC) were used in the test. Five to seven animals of these rats were put in each metal cage and reared by allowing them to freely take commercially available chow and water, in an animal room at room temperature between 19 and 25° C. and humidity between 30 and 70% under illumination for 12 hours (from 7:00 a.m. to 7:00 p.m.) per day.
An operation of spinal cord injury was performed in the rats. Each animal was anesthetized with diethyl ether and the skin of the back side thoracic cord part was incised. A laminectomy at the 7th to 8th thoracic vertebrae level was performed. Then, the thoracic cord at the T7-T8 segments was macroscopically cut and a section of spinal cord (about 5 mm) was removed, and the wound cavity of the removed part was filled with oxidized regenerated cellulose for hemostasis. The incised part was sutured with a surgical silk. After the spinal cord injury operation, urine was expressed manually twice per day (at 8:00-9:00 and 18:00-19:00) for about 3 weeks until autonomic micturition developed. An antibiotic (ampicillin, Sigma. Chemical Co.) was intramuscularly administered to the animals at a dose of 150 mg/kg once to twice per day for about 2 weeks.
(§2) Four to five weeks after the spinal cord injury, the rats were subjected to bladder catheterization. Under diethyl ether anesthesia, the bladder was exposed by midline incision of the abdomen. […] The bladder catheter was fixed with a surgical silk ligature and indwelled. The other end of the catheter was exposed subcutaneously from the back of the neck, plugged and then fixed to the skin with a surgical thread.
Four to six days after the bladder catheterization, a cystometry test was performed. The rats were put in a Bollman cage (Natsume Seisakusho Co., Ltd.) and a three-way cock was connected to the bladder catheter, one end of the cock was connected to a pressure transducer (Nihon Kohden Corp.) and the other end was connected to a 50-mL syringe (Terumo Corp.) arranged to an infusion pump (Harvard Apparatus, Inc.) for physiological saline infusion. The intravesical pressure signal from the pressure transducer was amplified with a strain pressure amplifier (AP-601G, Nihon Kohden Corp.) connected thereto, and was recorded on a thermal array recorder (RTA-1200, Nihon Kohden Corp.) via a polygraph system (RMP-6008, Nihon Kohden Corp.) containing the above amplifier. Sixty to ninety minutes after the completion of the preparation for the measurement, a room temperature physiological saline was infused into the bladder at a flow rate of 10 mL/h for 30 minutes, the occurence of micturition contractions was confirmed. Thirty minutes later, the infusion of physiological saline was carried out again for 30 minutes, and the intravesical pressure was measured to be used as the pre-administration value. Each of Compounds 1 to 6 was suspended in a 0.5 w/v % aqueous solution of methylcellulose at a concentration of 1 mg/mL suspension. The suspension was further diluted with a 0.5 w/v % aqueous solution of methylcellulose to prepare a suspension or solution for the administration at the intended concentration, which was then orally administered to the animals at a volume of 1 mL/kg. The period of 1, 3 and 5 hours after the dosing was used as the measuring time after the administration of the solvent or a compound tested, and the intravesical infusion of a physiological saline was carried out during a duration of 15 minutes around each measuring time (i.e. from 45 to 75 minutes, from 165 to 195 minutes and from 285 to 315 minutes after the administration of the compound).
Micturition contraction was measured as an index of the voiding function and pre-micturition contraction was measured as an index of detrusor hyperreflexia. […]

[1] = tested on: rats with bladder hypertrophy; test: Inhibitory activity on detrusor instability (cystometry test after partial urethral obstruction); type: in vivo, rat; settings: average ± standard error
Procedure: The experiment was carried out according to the method of Malmgren, et al. [J. Urol., Vol. 142, pp. 1134-1138 (1989)].
as §1, with “(7:00 a.m.-7:00” for “(from 7:00 a.m. to 7:00”
The rats were subjected to operation of partial urethral obstruction. Each animal was anesthetized by intraperitoneal administration of 50 mg/kg pentobarbital sodium (Dainippon Pharmaceutical Co., Ltd.), and the midline incision of the skin and muscle was made in the lower abdomen. A polyethylene tube (PE-20, Nippon Becton Dickinson Co., Ltd.) was inserted into urethra from the urethral to the bladder neck. After the proximal urethra was peeled and double-ligated, the polyethylene tube was pulled out to cause partial urethral obstruction. The incised part was-sutured with a surgical silk thread. An antibiotic (ampicillin, Sigma Chemical Co.) was intramusclarly administered to the animals at a dose of 150 mg/kg.
as §2, with “Six” for “Four to five”, “operation of the partial urethral obstruction,” for “spinal cord injury,”, “rats with bladder hypertrophy” for “rats”, “anesthesia with pentobarbital sodium,” for “diethyl ether anesthesia,”
Four to six days after the bladder catheterization, a cystometry test was performed. The rats were put in a Bollman cage (Natsume Seisakusho Co., Ltd.) and a three-way cock was connected to the bladder catheter, one end of the cock was connected to a pressure transducer (Nihon Kohden Corp.) and the other end was connected to a 50-mL syringe (Terumo Corp.) arranged to an infusion pump (Harvard Apparatus, Inc.) for physiological saline infusion. The intravesical pressure signal from the pressure transducer was amplified with a strain pressure amplifier (AP-601G, Nihon Kohden Corp.) connected thereto, and was recorded on a thermal array recorder (RTA-1200, Nihon Kohden Corp.) via a polygraph system (RMP-6008, Nihon Kohden Corp.) containing the above amplifier. Sixty to ninety minutes after the completion of the preparation for the measurement, intravesical infusion of a room temperature physiological saline at a flow rate of 10 mL/h was started and continued until the completion of the test, and the occurrence of micturition contractions and pre-micturition contractions were confirmed. The chart for 30 minutes after 3 hours from the commencement of the saline infusion was used as the values before the drug administration. Each of Compounds 1 to 3 was suspended in a 0.5 w/v % aqueous solution of methylcellulose at a concentration of 1 mg/mL. The suspension was further diluted with a 0.5 w/v % aqueous solution of methylcellulose to prepare a suspension or solution for the administration at the intended concentration. This was then orally administered to the animals at a volume of 1 mL/kg. The period of 1, 3 and 5 hours after the dosing was used as the measuring time after the administration of the solvent or a compound tested, and a duration of 15 minutes around each measuring time (45 to 75 minutes, 165 to 195 minutes and 285 to 315 minutes after the administration of the compound) was used as the measuring period.
Micturition contraction was used as an index of the voiding function and pre-micturition contraction was measure as an index of detrusor instability. […]

dd male mice = test: Acute toxicity test; type: in vivo; settings: oral administration, mortality on the seventh day after administration
Procedure: The test compound was administered orally or intraperitoneally to 3 animals per group of dd male mice (body weight: 20±1 g). The minimum lethal dose (MLD) value was obtained by observing mortality on the seventh day after the administration calculated.

C[C@](O)(C(=O)Nc1cccc2c1C(=O)c1sccc1CS2(=O)=O)C(F)(F)F [Compound 1]
micturition contractions (relative value, before administration = 100) (spinal cord-injured rats; 0.001 mg/kg p.o., after 1 hr.): 106.5 ± 11.3%
pre-micturition contractions (relative value, before administration = 100) (spinal cord-injured rats; 0.001 mg/kg p.o., after 1 hr.): 83.5 ± 6.8%
micturition contractions (relative value, before administration = 100) (spinal cord-injured rats; 0.001 mg/kg p.o., after 3 hrs.): 101.7 ± 9.5%
pre-micturition contractions (relative value, before administration = 100) (spinal cord-injured rats; 0.001 mg/kg p.o., after 3 hrs.): 95.4 ± 12.0%
micturition contractions (relative value, before administration = 100) (spinal cord-injured rats; 0.001 mg/kg p.o., after 5 hrs.): 103.1 ± 6.5%
pre-micturition contractions (relative value, before administration = 100) (spinal cord-injured rats; 0.001 mg/kg p.o., after 5 hrs.): 105.5 ± 20.8%
micturition contractions (relative value, before administration = 100) (spinal cord-injured rats; 0.01 mg/kg p.o., after 1 hr.): 114.4 ± 9.5%
pre-micturition contractions (relative value, before administration = 100) (spinal cord-injured rats; 0.01 mg/kg p.o., after 1 hr.): 59.6 ± 8.1 %
micturition contractions (relative value, before administration = 100) (spinal cord-injured rats; 0.01 mg/kg p.o., after 3 hrs.): 117.6 ± 13.9%
pre-micturition contractions (relative value, before administration = 100) (spinal cord-injured rats; 0.01 mg/kg p.o., after 3 hrs.): 51.2 ± 6.7 %
micturition contractions (relative value, before administration = 100) (spinal cord-injured rats; 0.01 mg/kg p.o., after 5 hrs.): 117.6 ± 12.7%
pre-micturition contractions (relative value, before administration = 100) (spinal cord-injured rats; 0.01 mg/kg p.o., after 5 hrs.): 42.2 ± 7.2 %
micturition contractions (relative value, before administration = 100) (spinal cord-injured rats; 0.1 mg/kg p.o., after 1 hr.): 109.3 ± 6.3%
pre-micturition contractions (relative value, before administration = 100) (spinal cord-injured rats; 0.1 mg/kg p.o., after 1 hr.): 52.3 ± 9.1 %
micturition contractions (relative value, before administration = 100) (spinal cord-injured rats; 0.1 mg/kg p.o., after 3 hrs.): 110.2 ± 5.4%
pre-micturition contractions (relative value, before administration = 100) (spinal cord-injured rats; 0.1 mg/kg p.o., after 3 hrs.): 33.3 ± 6.3 %
micturition contractions (relative value, before administration = 100) (spinal cord-injured rats; 0.1 mg/kg p.o., after 5 hrs.): 112.4 ± 7.0%
pre-micturition contractions (relative value, before administration = 100) (spinal cord-injured rats; 0.1 mg/kg p.o., after 5 hrs.): 28.5 ± 6.2 %
micturition contractions (relative value, before administration = 100) ([1]; 0.001 mg/kg p.o., after 1 hr.): 99.3 ± 2.3%
pre-micturition contractions (relative value, before administration = 100) ([1]; 0.001 mg/kg p.o., after 1 hr.): 105.9 ± 7.8%
micturition contractions (relative value, before administration = 100) ([1]; 0.001 mg/kg p.o., after 3 hrs.): 101.5 ± 3.3%
pre-micturition contractions (relative value, before administration = 100) ([1]; 0.001 mg/kg p.o., after 3 hrs.): 100.3 ± 10.0%
micturition contractions (relative value, before administration = 100) ([1]; 0.001 mg/kg p.o., after 5 hrs.): 98.7 ± 5.2%
pre-micturition contractions (relative value, before administration = 100) ([1]; 0.001 mg/kg p.o., after 5 hrs.): 104.2 ± 10.2%
micturition contractions (relative value, before administration = 100) ([1]; 0.01 mg/kg p.o., after 1 hr.): 99.6 ± 1.2%
pre-micturition contractions (relative value, before administration = 100) ([1]; 0.01 mg/kg p.o., after 1 hr.): 59.5 ± 4.1 %
micturition contractions (relative value, before administration = 100) ([1]; 0.01 mg/kg p.o., after 3 hrs.): 92.6 ± 3.2%
pre-micturition contractions (relative value, before administration = 100) ([1]; 0.01 mg/kg p.o., after 3 hrs.): 69.5 ± 4.4 %
micturition contractions (relative value, before administration = 100) ([1]; 0.01 mg/kg p.o., after 5 hrs.): 90.1 ± 4.3%
pre-micturition contractions (relative value, before administration = 100) ([1]; 0.01 mg/kg p.o., after 5 hrs.): 67.8 ± 5.5 %
micturition contractions (relative value, before administration = 100) ([1]; 0.1 mg/kg p.o., after 1 hr.): 106.2 ± 9.2%
pre-micturition contractions (relative value, before administration = 100) ([1]; 0.1 mg/kg p.o., after 1 hr.): 55.8 ± 8.2 %
micturition contractions (relative value, before administration = 100) ([1]; 0.1 mg/kg p.o., after 3 hrs.): 105.2 ± 9.6%
pre-micturition contractions (relative value, before administration = 100) ([1]; 0.1 mg/kg p.o., after 3 hrs.): 66.2 ± 4.7 %
micturition contractions (relative value, before administration = 100) ([1]; 0.1 mg/kg p.o., after 5 hrs.): 100.1 ± 8.6%
pre-micturition contractions (relative value, before administration = 100) ([1]; 0.1 mg/kg p.o., after 5 hrs.): 69.2 ± 7.4 %
minimum lethal dose (MLD) (dd male mice): > 1000 mg/kg
